The values that follow come from patent publication US20260234157A1, “COMPOUND AND METHOD FOR TARGETED DEGRADATION OF ANDROGEN RECEPTOR” (Gan & Lee Pharmaceuticals Co., Ltd., priority 2023, published 2026).

Structures are written as SMILES. Residue numbers refer to the chain shown, from its start.

What all share (assay type): cell-based
The test system of one experiment is LNCaP FGC cells. In words: Inhibition of proliferation of LNCaP cells (WST-8). As to conditions: Homo sapiens, LNCaP, 96 h, LNCaP FGC cells, 96 hours, WST-8 absorbance at 450 nm; read-out: IC50 for inhibiting the proliferation of LNCaP cells. How it is done: The cells were cultured in a cell culture incubator with 5% CO2 at 37° C. overnight. […] On the sixth day, 96 well plates were taken out, and 20 μL of WST-8 (Beytime, C0040) reagent was added to each well.

Another experiment deals with VCaP cells. In words: Inhibition of proliferation of VCaP cells (WST-8). As to conditions: Homo sapiens; VCaP cells, 168 hours, WST-8 absorbance at 450 nm; read-out: IC50 for inhibiting the proliferation of VCaP cells. In short, it runs like this: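 Proliferation was read by WST-8 on day nine. Cells were VCaP FGC, seeded at 15000 cells per well in 10% FBS DMEM and kept at 37° C with 5% CO2.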

Experiment [1] addresses T1, AR protein (Homo sapiens, UniProt P10275).
T1 construct: degradation activity of the compounds disclosed in the present disclosure on AR protein in VCaP cells; host or cells: VCaP
T1 sequence (P10275 1-920): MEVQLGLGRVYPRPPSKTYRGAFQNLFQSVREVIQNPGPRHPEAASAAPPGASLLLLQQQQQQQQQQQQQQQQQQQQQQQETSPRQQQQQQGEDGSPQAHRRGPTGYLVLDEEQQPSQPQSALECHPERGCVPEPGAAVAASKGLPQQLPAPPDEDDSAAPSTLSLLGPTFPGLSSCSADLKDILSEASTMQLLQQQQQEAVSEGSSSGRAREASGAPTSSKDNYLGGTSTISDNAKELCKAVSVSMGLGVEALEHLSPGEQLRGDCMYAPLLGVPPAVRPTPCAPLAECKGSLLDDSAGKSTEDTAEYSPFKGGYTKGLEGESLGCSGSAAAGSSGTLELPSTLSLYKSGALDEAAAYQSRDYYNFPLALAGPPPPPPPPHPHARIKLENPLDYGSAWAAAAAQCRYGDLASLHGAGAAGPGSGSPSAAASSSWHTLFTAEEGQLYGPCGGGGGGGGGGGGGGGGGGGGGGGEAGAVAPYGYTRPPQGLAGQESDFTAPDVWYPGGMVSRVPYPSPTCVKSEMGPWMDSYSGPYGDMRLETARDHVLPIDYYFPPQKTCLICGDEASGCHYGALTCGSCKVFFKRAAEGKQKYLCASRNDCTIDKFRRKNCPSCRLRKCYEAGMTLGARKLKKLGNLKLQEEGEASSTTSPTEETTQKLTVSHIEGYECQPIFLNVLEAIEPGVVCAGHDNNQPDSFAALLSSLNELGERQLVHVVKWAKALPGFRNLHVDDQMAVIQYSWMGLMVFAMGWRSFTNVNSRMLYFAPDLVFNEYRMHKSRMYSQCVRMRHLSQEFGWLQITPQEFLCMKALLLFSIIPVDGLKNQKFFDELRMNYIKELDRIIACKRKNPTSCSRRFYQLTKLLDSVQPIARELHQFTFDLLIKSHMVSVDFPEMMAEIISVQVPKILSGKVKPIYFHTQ
In words: Degradation of AR protein in VCaP cells (Western blot). To be noted: 8 hours; for inhibition at 0.01 µM: compound at 10 nM, read-out: Degradation rate of the AR protein in VCaP cells, 10 nM (%); for inhibition at 0.1 µM: compound at 100 nM, read-out: Degradation rate of the AR protein in VCaP cells, 100 nM (%). In short, it runs like this: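 Western blot readout: AR band grayscale normalised to GAPDH, used to derive degradation rate. Lysates came from VCaP cells exposed to compound for 8 h, with solvent controls run in parallel.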

Experiment [2] deals with T2, AR protein (Homo sapiens, UniProt P10275, T878A).
T2 construct: degradation activity of the compounds disclosed in the present disclosure on AR protein in LNCaP cells; host or cells: LNCaP FGC
T2 sequence (P10275 1-920 T878A): T1 sequence (P10275 1-920) with T878A
In words: Degradation of AR protein in LNCaP cells (Western blot). As to conditions: LNCaP cells, 8 hours, Western blot grayscale, GAPDH internal reference; for inhibition at 0.01 µM: compound 10 nM, read-out: Degradation rates of the AR protein in LNCaP cells, 10 nM (%); for inhibition at 0.1 µM: compound 100 nM, read-out: Degradation rates of the AR protein in LNCaP cells, 100 nM (%). The method, boiled down: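 Percent AR degradation was derived from GAPDH-normalised Western blot band intensities (infrared detection) in LNCaP lysates.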

For the molecule `N#Cc1ccc(O[C@H]2CC[C@H](NC(=O)c3ccc(N4CCN(CC(=O)N5CCC6(CC5)COc5c6ccc6c5CN(C5CCC(=O)NC5=O)C6=O)CC4)nn3)CC2)cc1Cl` (stereo partly drawn) [Compound 241], the IC50 with LNCaP FGC cells turned out to be 68600 nM; in the experiment with VCaP cells, 8.5 nM. The results for the inhibition at 0.01 µM at AR protein [1] and at AR protein [2] were 29% and 50%, respectively. Moreover, the inhibition at 0.1 µM at AR protein [1] worked out at 77%; at AR protein [2], 63%.
Take `CCOC1(CN2CCC3(CC2)COc2c3ccc3c2C(=O)N(C2CCC(=O)NC2=O)C3=O)CCN(c2ccc(C(=O)N[C@H]3CC[C@H](Oc4ccc(C#N)c(OC)c4)CC3)nn2)CC1` (stereo partly drawn) [Compound 243]: the results for the IC50 in the experiment with LNCaP FGC cells and with VCaP cells were 120 nM and 18 nM, respectively. In addition, the inhibition at 0.01 µM at AR protein [1] worked out at 16%; on AR protein [2], 24%. Moreover, the inhibition at 0.1 µM turned out to be 68% at AR protein [1] and 58% at AR protein [2].
Take `COc1cc(O[C@H]2CC[C@H](NC(=O)c3ccc(N4CC(CN5CCC6(CC5)COc5c6ccc6c5C(=O)N(C5CCC(=O)NC5=O)C6=O)C4)nn3)CC2)ccc1C#N` (stereo partly drawn) [Compound 251]: the IC50 turned out to be 150 nM in the experiment with LNCaP FGC cells and 270 nM in the experiment on VCaP cells. The inhibition at 0.01 µM on AR protein [1] came out at 48%; on AR protein [2], 45%. For the same molecule, the inhibition at 0.1 µM turned out to be 73% at AR protein [1] and 37% at AR protein [2].
As to `COC1(CN2CC3(CCc4ccc5c(c4O3)C(=O)N(C3CCC(=O)NC3=O)C5=O)C2)CCN(c2ccc(C(=O)N[C@H]3CC[C@H](Oc4ccc(C#N)c(Cl)c4)CC3)nn2)CC1` (stereo partly drawn) [Compound 165], the figures for the IC50 with LNCaP FGC cells and in the experiment with VCaP cells were 96600 nM and over 90000 nM, respectively. Besides, the inhibition at 0.01 µM at AR protein [1] is -43%; at AR protein [2], 28%. Moreover, the inhibition at 0.1 µM at AR protein [1] came out at 23%; at AR protein [2] it was 25%.
With `COc1cc(O[C@H]2CC[C@H](NC(=O)c3ccc(N4CCC(C#N)(CN5CCC6(CC5)COc5c6ccc6c5C(=O)N(C5CCC(=O)NC5=O)C6=O)CC4)nn3)CC2)ccc1C#N` (stereo partly drawn) [Compound 229], the IC50 in the experiment with LNCaP FGC cells was 330 nM; in the experiment with VCaP cells it was 15 nM. For the same molecule, the inhibition at 0.01 µM at AR protein [1] stood at 33%; on AR protein [2], 49%. Further, the values for the inhibition at 0.1 µM at AR protein [1] and on AR protein [2] were 73% and 59%, respectively.
For the molecule `N#Cc1ccc(O[C@H]2CC[C@H](NC(=O)c3ccc(N4CCC(CN5CCC6(CC5)COc5cc7c(cc56)C(=O)N(C5CCC(=O)NC5=O)C7=O)CC4)nn3)CC2)cc1Cl` (stereo partly drawn) [Compound 56], the figures for the IC50 with LNCaP FGC cells and in the experiment with VCaP cells were 350 nM and 60 nM, respectively. For the same molecule, the inhibition at 0.01 µM at AR protein [1] came to 79%; on AR protein [2], 44%. Further, the inhibition at 0.1 µM was found to be 88% at AR protein [1] and 77% on AR protein [2].
In the case of `N#Cc1ccc(O[C@H]2CC[C@H](NC(=O)c3ccc(C#CC4CCC(N5CCC6(CC5)COc5c6ccc6c5CN(C5CCC(=O)NC5=O)C6=O)CC4)nc3)CC2)cc1Cl` (stereo partly drawn) [Compound 235], the IC50 in the experiment on LNCaP FGC cells amounted to 840 nM; with VCaP cells, 2 nM. Further, the results for the inhibition at 0.01 µM on AR protein [1] and at AR protein [2] were 35% and 39%, respectively. The values for the inhibition at 0.1 µM on AR protein [1] and at AR protein [2] were 76% and 36%, respectively.
Take `N#Cc1ccc(O[C@H]2CC[C@H](NC(=O)c3ccc(N4CCC(CN5CCC6(CC5)Oc5cc7c(cc5CC6(F)F)C(=O)N(C5CCC(=O)NC5=O)C7=O)CC4)nn3)CC2)cc1Cl` (stereo partly drawn) [Compound 18]: the IC50 was found to be 4940 nM with LNCaP FGC cells and 110 nM in the experiment on VCaP cells. In addition, the inhibition at 0.01 µM stood at 59% on AR protein [1] and 7% on AR protein [2]. In addition, the values for the inhibition at 0.1 µM on AR protein [1] and on AR protein [2] were 69% and 57%, respectively.
As for `N#Cc1ccc(O[C@H]2CC[C@H](NC(=O)c3ccc(N4CC5(CC(N6CCC7(CCc8cc9c(cc8O7)C(=O)N(C7CCC(=O)NC7=O)C9=O)CC6)C5)C4)nn3)CC2)cc1Cl` (stereo partly drawn) [Compound 32], the IC50 came to 3600 nM with LNCaP FGC cells and 520 nM with VCaP cells. The inhibition at 0.01 µM on AR protein [1] was determined as 58%; on AR protein [2] it was 22%. Further, the inhibition at 0.1 µM turned out to be 64% on AR protein [1] and 53% on AR protein [2].
For `COc1cc(O[C@H]2C(C)(C)[C@H](NC(=O)c3ccc(N4CCC(C)(CN5CCC6(CCc7cc8c(cc7O6)C(=O)N(C6CCC(=O)NC6=O)C8=O)CC5)CC4)cc3)C2(C)C)ccc1C#N` (stereo partly drawn) [Compound 287], the IC50 turned out to be 70500 nM with LNCaP FGC cells and 310 nM in the experiment with VCaP cells. Also, the results for the inhibition at 0.01 µM on AR protein [1] and at AR protein [2] were -31% and 28%, respectively. Moreover, the inhibition at 0.1 µM was 13% on AR protein [1] and 51% on AR protein [2].
In the case of `CCC1(CN2CCC3(CC2)COc2c3ccc3c2C(=O)N(C2CCC(=O)NC2=O)C3=O)CCN(c2ccc(C(=O)N[C@H]3CC[C@H](Oc4ccc(C#N)c(OC)c4)CC3)nn2)CC1` (stereo partly drawn) [Compound 250], the IC50 with LNCaP FGC cells is over 90000 nM; in the experiment on VCaP cells, 160 nM. Moreover, the inhibition at 0.01 µM at AR protein [1] was 15%; on AR protein [2], -14%. For the same molecule, the values for the inhibition at 0.1 µM on AR protein [1] and at AR protein [2] were 61% and 67%, respectively.
Turning to `N#Cc1ccc(O[C@H]2CC[C@H](NC(=O)c3ccc(N4CCC(O)(CN5CCC6(CC5)COc5c6ccc6c5C(=O)N(C5CCC(=O)NC5=O)C6=O)CC4)nn3)CC2)cc1C(F)(F)F` (stereo partly drawn) [Compound 214], the IC50 was 3780 nM in the experiment with LNCaP FGC cells and 48 nM in the experiment on VCaP cells. Moreover, the figures for the inhibition at 0.01 µM on AR protein [1] and on AR protein [2] were 7% and 40%, respectively. For the same molecule, the inhibition at 0.1 µM on AR protein [1] stood at 63%; on AR protein [2] it was 68%.
